Experiment [1] deals with iNOS (Homo sapiens, UniProt P35228). Kind of experiment: NOS activity: L-[3H]citrulline formation from L-[3H]arginine, iNOS. The experiment is classed as biochemical. Conditions: iNOS, 1 μM L-Arg, pH 7.5, room temperature, 30 minutes, read-out: iNOS (IC50). How it is done:
(§1) NOS activity is measured as the formation of L-[2,3,4,5-^3 H]Citrullinefrom L-[2,3,4,5-^3 H]Arginine. The incubation buffer (100 μL) contained; 100 mM TES, pH 7.5, 5 μM FAD, 5 μM FMN, 10 μM BH4, 0.5 mM NADPH, 0.5 mM DTT, 0.5 mg/mL BSA, 2 mM CaCl2, 10 μg/mL calmodulin (bovine), 1 μM L-Arg, 0.2 μCi L-[2,3,4,5-^3 H]Arg, and the inhibitor in aqueous DMSO (max. 5%). The reaction is initiated by addition of enzyme. Incubations are performed at room temperature for 30 minutes and stopped by the addition of an equal volume of quenching buffer consisting of 200 mM sodium citrate, pH 2.2, 0.02% sodium azide. Reaction products are separated by passing through a cation exchange resin and quantitated as cpm by scintillation counting.

The target of experiment [2] is ncNOS (Homo sapiens, UniProt P29475). The experiment in a line: biochemical. Conditions: ncNOS, 1 μM L-Arg, pH 7.5, room temperature, 30 minutes, read-out: ncNOS (IC50).
Chain of ncNOS (P29475 whole entry): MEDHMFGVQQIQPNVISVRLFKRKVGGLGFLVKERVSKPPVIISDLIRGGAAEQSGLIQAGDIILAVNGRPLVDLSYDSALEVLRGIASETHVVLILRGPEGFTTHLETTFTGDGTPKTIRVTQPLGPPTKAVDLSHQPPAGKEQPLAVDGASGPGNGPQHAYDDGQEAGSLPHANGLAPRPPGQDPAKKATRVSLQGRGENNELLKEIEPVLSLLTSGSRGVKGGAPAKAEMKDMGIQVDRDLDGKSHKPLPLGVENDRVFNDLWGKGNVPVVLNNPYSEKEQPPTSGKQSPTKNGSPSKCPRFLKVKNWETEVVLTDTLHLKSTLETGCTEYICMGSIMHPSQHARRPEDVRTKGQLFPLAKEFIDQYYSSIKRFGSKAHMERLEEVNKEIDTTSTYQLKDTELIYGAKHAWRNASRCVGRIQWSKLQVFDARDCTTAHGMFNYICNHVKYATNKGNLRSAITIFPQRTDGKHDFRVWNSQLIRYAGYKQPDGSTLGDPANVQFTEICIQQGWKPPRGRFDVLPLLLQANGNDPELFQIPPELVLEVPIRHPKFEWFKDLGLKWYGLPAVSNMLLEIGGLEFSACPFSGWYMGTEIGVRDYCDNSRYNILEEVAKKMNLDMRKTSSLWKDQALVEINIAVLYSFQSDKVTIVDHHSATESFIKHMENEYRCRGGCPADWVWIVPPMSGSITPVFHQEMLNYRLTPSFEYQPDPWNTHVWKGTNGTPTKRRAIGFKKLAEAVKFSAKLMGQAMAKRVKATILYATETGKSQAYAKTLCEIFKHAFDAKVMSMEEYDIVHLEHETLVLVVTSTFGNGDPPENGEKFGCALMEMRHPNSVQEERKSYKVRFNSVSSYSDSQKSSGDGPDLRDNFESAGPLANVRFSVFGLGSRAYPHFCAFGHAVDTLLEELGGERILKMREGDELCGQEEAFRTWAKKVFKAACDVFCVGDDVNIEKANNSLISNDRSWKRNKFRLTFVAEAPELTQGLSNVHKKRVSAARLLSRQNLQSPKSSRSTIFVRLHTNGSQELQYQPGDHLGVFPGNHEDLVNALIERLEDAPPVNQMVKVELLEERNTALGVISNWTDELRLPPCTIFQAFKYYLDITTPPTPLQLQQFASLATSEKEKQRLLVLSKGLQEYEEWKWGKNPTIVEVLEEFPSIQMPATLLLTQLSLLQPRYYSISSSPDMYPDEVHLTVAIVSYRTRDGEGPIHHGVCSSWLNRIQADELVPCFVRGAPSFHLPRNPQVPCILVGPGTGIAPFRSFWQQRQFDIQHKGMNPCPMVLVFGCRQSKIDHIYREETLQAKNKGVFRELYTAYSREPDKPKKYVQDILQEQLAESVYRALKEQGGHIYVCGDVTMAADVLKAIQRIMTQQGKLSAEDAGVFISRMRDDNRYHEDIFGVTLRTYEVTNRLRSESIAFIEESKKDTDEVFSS
For experiment [3], the target named is ecNOS (Homo sapiens, UniProt P29474). The experiment in a line: NOS activity: L-[3H]citrulline formation from L-[3H]arginine, ecNOS. To be noted: ecNOS, 1 μM L-Arg, pH 7.5, room temperature, 30 minutes, read-out: ecNOS (IC50). The experiment is classed as biochemical. How it is done:
as §1

Where a name gives a salt, the structure may show the parent alone. Read-outs that look alike come from different tables or passages of the source.

For orientation: IC50 means the point on the concentration scale where inhibition reaches its midpoint.

Regarding `CC(=O)NCCCCc1cc(C)cc(N)n1` [Example 57, 6-(4-Acetamidobutyl)-2-amino-4-methylpyridine], the IC50 in experiment [1] (Table 2) is < 10 µM; in experiment [2] (Table 2), < 1 µM; in experiment [3] (Table 2) it was < 10 µM.
Take `Nc1ccccn1` [Example 1]: the IC50 is 1.4 µM in experiment [1] (Table 1), < 10 µM in experiment [2] (Table 1) and < 10 µM in experiment [3] (Table 1).
For `Cc1cc(N)ncc1Br` [Example 41, 2-Amino-5-bromo-4-methylpyridine], the IC50 in experiment [1] (Table 2), in experiment [2] (Table 2) and in experiment [3] (Table 2) was < 10 µM in each case.
For `Cc1cnc(N)c(C)c1` [Example 50, 2-Amino-3,5-dimethylpyridine], the IC50 in experiment [1] (Table 2) was < 50 µM; in experiment [2] (Table 2), < 10 µM; in experiment [3] (Table 2), < 10 µM.
Turning to `Cc1cc(N)nc2c1CCCC2` [Example 63, 2-Amino-4-methyl-5,6,7,8-tetrahydroquinoline], the IC50 in experiment [1] (Table 2) was < 10 µM; in experiment [2] (Table 2), < 10 µM; in experiment [3] (Table 2), < 50 µM.
With `C=CCCc1cc(C)cc(N)n1` [Example 53, 2-Amino-6-(3-buten-1-yl)-4-methylpyridine], the IC50 in experiment [1] (Table 2), in experiment [2] (Table 2) and in experiment [3] (Table 2) was < 1 µM in each case.
As to `Cc1cc(N)nc(CCCCC(=O)O)c1` [Example 74, 5-(6-Amino-4-methyl-2-pyridinyl)pentanoic acid hydrochloride], the results for the IC50 in experiment [1] (Table 2), in experiment [2] (Table 2) and in experiment [3] (Table 2) were < 10 µM, < 10 µM and < 1 µM, respectively.
Regarding `Cc1cc(N)nc(CCCCN)c1` [Example 56, 2-Amino-6-(4-aminobutyl)-4-methylpyridine], the IC50 in experiment [1] (Table 2) was < 1 µM; in experiment [2] (Table 2) it was < 1 µM; in experiment [3] (Table 2) it was < 10 µM.
As to `CCc1cc(C)cc(N)n1` [Example 54, 2-Amino-6-ethyl-4-methylpyridine], the IC50 in experiment [1] (Table 2), in experiment [2] (Table 2) and in experiment [3] (Table 2) was < 1 µM each time.
For the compound `C#Cc1cnc(N)cc1C` [Example 32, 2-Amino-5-ethynyl-4-methyl-pyridine], the values for the IC50 in experiment [1] (Table 2), in experiment [2] (Table 2) and in experiment [3] (Table 2) were < 10 µM, < 50 µM and < 50 µM, respectively.
As to `Nc1ncccc1O` [Example 9], the IC50 in experiment [1] (Table 1) was 47.5 µM; in experiment [2] (Table 1), > 50 µM; in experiment [3] (Table 1), > 50 µM.
Turning to `Nc1nccc2c1CCCC2` [Example 65, 1-Amino-5,6,7,8-tetrahydroisoquinoline], the IC50 in experiment [1] (Table 2), in experiment [2] (Table 2) and in experiment [3] (Table 2) was < 50 µM each time.
Turning to `Nc1cccc(Cc2ccccc2)n1` [Example 61, 2-Amino-6-benzylpyridine], the half-inhibitory concentration (IC50) in experiment [1] (Table 2) was < 50 µM; in experiment [2] (Table 2) it was < 50 µM; in experiment [3] (Table 2), > 50 µM.
As for `Cc1ccnc(N)c1N(C)C` [Example 27, 2-Amino-3-dimethylamino-4-picoline trihydrochloride], the IC50 in experiment [1] (Table 2) is < 50 µM; in experiment [2] (Table 2), < 50 µM; in experiment [3] (Table 2) it was > 50 µM.
For `Cc1cc(N)nc(CC[C@H](C)N)c1` [Example 76, (S)-2-Amino-6-(3-aminobutyl)-4-methylpyridine], the figures for the IC50 in experiment [1] (Table 2), in experiment [2] (Table 2) and in experiment [3] (Table 2) were < 1 µM, < 1 µM and < 10 µM, respectively.
In the case of `Cc1cc(N)nc(CCc2ccccc2)c1` [Example 73, 2-Amino-4-methyl-6-(2-phenylethyl)pyridine], the IC50 in experiment [1] (Table 2), in experiment [2] (Table 2) and in experiment [3] (Table 2) was < 10 µM throughout.
For `Cc1cc(N)ncc1C(=O)O` [Example 43, 2-Amino-5-carboxy-4-methylpyridine], the IC50 in experiment [1] (Table 2), in experiment [2] (Table 2) and in experiment [3] (Table 2) was > 50 µM each time.
Turning to `Cc1cc(N)nc(C(C)C)c1` [Example 55, 2-Amino-4-methyl-6-(1-methylethyl)pyridine], the IC50 in experiment [1] (Table 2) is < 1 µM; in experiment [2] (Table 2), < 10 µM; in experiment [3] (Table 2), < 1 µM.
Turning to `COC(=O)c1cc(Cl)cc(N)n1` [Example 36, 4-Chloro-6-methoxycarbonyl-2-aminopyridine], the IC50 is < 50 µM in experiment [1] (Table 2), > 50 µM in experiment [2] (Table 2) and > 50 µM in experiment [3] (Table 2).
For the compound `C=Cc1c(C)cc(N)nc1C` [Example 37, 4,6-Dimethyl-5-ethenyl-2-aminopyridine], the IC50 is < 10 µM in experiment [1] (Table 2), < 1 µM in experiment [2] (Table 2) and < 10 µM in experiment [3] (Table 2).
On to `Cc1cc(N)nc(CCC(N)C(=O)O)c1` (stereo not drawn) [Example 59, α-(2-(6-Amino-4-methylpyrid-2-yl)ethyl)glycine dihydrochloride], for which the 50% inhibitory concentration (IC50) in experiment [1] (Table 2), in experiment [2] (Table 2) and in experiment [3] (Table 2) was < 1 µM each time.
As for `CSCc1ccnc(N)c1` [Example 22, 2-Amino-4-methylthiomethylpyridine], the IC50 is < 50 µM in experiment [1] (Table 2), > 50 µM in experiment [2] (Table 2) and > 50 µM in experiment [3] (Table 2).
For `COCc1c(C)ccnc1N` [Example 25, 2-Amino-3-methoxymethyl-4-picoline dihydrochloride], the IC50 in experiment [1] (Table 2) was < 10 µM; in experiment [2] (Table 2), < 50 µM; in experiment [3] (Table 2), < 50 µM.
Regarding `Nc1ncccc1OCC[C@H](N)C(=O)O` [Example 48, 2-(2-Amino-3-pyridinoxy)-ethyl-(S)-glycine dihydrochloride], the values for the half-inhibitory concentration (IC50) in experiment [1] (Table 2), in experiment [2] (Table 2) and in experiment [3] (Table 2) were < 50 µM, < 50 µM and < 10 µM, respectively.
As for `Cc1cc(N)nc(CCC(C)C)c1` [Example 71, 2-Amino-4-methyl-6-(3-methylbutyl)pyridine], the IC50 is < 1 µM in experiment [1] (Table 2), < 1 µM in experiment [2] (Table 2) and < 10 µM in experiment [3] (Table 2).
Take `CC(=O)Nc1cnc(N)cc1C` [Example 31, 5-Acetylamino-2-amino-4-picoline]: the IC50 in experiment [1] (Table 2) was < 10 µM; in experiment [2] (Table 2) it was < 50 µM; in experiment [3] (Table 2) it was < 50 µM.
As for `COc1cccnc1N` [Example 20, 2-Amino-3-methoxypyridine], the concentration for half-maximal inhibition (IC50) was > 50 µM in experiment [1] (Table 2), < 50 µM in experiment [2] (Table 2) and < 50 µM in experiment [3] (Table 2).
On to `Cc1cnc(N)cc1C` [Example 49, 2-Amino-4,5-dimethylpyridine hydrochloride], for which the IC50 in experiment [1] (Table 2), in experiment [2] (Table 2) and in experiment [3] (Table 2) was < 1 µM in each case.
For the compound `CSc1c(C)ccnc1N` [Example 21, 2-Amino-3-methylthio-4-picoline], the 50% inhibitory concentration (IC50) in experiment [1] (Table 2) was < 50 µM; in experiment [2] (Table 2) it was < 10 µM; in experiment [3] (Table 2) it was < 50 µM.
On to `Cc1cc(N)ncc1Cl` [Example 29, 2-Amino-5-chloro-4-picoline], for which the IC50 in experiment [1] (Table 2) was < 10 µM; in experiment [2] (Table 2) it was < 50 µM; in experiment [3] (Table 2) it was < 50 µM.

(Values after patent US5972975A, “Substituted 2-aminopyridines as inhibitors of nitric oxide synthase” (priority 1997, dated 1999).)
